From ChEMBL document CHEMBL5465560, “Selectivity Literature for EUbOPEN Chemogenomic Library” (2024)

Tests used:
[1] = target: Tyrosine-protein kinase Fgr (Homo sapiens) (UniProt P09769); assay: Selectivity interaction (KinomeScan (DiscoverX)) EUB0001079a FGR; conditions: at 1 µM
[2] = target: T1, Mitogen-activated protein kinase kinase kinase 6 (Homo sapiens) (UniProt O95382); assay: Selectivity interaction (KinomeScan (DiscoverX)) EUB0001049a MAP3K6; conditions: at 1 µM
T1 sequence (whole entry): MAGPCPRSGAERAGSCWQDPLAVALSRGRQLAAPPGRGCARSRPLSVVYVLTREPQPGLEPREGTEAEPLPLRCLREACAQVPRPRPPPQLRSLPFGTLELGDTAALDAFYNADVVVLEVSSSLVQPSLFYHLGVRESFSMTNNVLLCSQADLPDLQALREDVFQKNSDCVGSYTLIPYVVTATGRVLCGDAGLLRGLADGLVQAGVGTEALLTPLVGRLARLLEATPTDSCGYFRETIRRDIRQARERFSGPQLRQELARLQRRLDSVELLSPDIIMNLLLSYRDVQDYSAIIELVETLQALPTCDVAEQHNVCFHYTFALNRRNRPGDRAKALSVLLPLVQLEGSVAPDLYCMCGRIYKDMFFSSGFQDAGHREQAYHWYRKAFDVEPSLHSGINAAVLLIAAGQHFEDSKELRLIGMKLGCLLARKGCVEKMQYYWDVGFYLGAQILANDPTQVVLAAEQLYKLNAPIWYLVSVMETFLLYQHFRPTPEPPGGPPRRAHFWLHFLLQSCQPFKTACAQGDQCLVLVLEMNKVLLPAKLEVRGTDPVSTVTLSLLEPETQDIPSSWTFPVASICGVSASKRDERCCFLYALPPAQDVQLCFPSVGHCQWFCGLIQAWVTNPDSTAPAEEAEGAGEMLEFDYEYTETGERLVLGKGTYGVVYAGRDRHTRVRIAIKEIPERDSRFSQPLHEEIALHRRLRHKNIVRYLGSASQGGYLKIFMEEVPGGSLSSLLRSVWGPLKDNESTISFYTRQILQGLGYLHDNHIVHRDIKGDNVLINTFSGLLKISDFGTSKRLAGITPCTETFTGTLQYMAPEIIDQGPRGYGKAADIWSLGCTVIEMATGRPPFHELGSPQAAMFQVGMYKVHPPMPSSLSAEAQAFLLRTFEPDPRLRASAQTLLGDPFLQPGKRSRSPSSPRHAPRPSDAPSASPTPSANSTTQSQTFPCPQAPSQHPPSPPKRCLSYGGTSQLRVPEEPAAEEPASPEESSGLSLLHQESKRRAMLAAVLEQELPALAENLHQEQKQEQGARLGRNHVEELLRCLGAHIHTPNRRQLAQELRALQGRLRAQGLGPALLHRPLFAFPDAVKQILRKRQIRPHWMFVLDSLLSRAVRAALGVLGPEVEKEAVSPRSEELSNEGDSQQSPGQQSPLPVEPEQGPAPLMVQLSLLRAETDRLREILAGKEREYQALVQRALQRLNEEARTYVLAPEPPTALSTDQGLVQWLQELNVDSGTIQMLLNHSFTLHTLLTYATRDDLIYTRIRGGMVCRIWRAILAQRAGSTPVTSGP

[3] = target: Ribosomal protein S6 kinase alpha-2 (Homo sapiens) (UniProt Q15349); assay: Selectivity interaction (KinomeScan (DiscoverX)) EUB0000695a RPS6KA2; conditions: at 100 nM
Chain of Ribosomal protein S6 kinase alpha-2 (Homo sapiens) (Q15349 whole entry): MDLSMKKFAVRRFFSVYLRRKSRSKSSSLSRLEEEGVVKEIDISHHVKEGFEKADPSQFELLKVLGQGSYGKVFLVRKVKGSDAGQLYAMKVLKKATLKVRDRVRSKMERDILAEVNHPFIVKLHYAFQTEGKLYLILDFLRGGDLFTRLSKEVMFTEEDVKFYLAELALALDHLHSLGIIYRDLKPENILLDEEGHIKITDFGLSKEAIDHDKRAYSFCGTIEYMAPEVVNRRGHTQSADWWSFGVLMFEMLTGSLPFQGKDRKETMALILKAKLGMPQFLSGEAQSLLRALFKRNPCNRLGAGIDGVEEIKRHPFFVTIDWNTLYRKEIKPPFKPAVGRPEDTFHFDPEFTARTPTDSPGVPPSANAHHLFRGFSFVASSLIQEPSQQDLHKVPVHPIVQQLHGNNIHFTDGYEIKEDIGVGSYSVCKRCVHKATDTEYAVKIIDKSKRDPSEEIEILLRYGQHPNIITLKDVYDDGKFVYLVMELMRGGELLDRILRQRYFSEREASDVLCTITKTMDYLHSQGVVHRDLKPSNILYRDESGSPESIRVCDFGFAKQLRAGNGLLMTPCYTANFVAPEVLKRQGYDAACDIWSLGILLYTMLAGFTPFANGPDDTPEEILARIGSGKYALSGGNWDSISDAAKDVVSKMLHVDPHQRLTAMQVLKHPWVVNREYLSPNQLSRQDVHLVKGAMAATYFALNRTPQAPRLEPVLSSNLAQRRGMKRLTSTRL

[4] = target: Ribosomal protein S6 kinase alpha-1 (Homo sapiens, UniProt Q15418); assay: Selectivity interaction (KinomeScan (DiscoverX)) EUB0000618a RPS6KA1; conditions: at 10 µM
Chain of Ribosomal protein S6 kinase alpha-1 (Q15418 whole entry): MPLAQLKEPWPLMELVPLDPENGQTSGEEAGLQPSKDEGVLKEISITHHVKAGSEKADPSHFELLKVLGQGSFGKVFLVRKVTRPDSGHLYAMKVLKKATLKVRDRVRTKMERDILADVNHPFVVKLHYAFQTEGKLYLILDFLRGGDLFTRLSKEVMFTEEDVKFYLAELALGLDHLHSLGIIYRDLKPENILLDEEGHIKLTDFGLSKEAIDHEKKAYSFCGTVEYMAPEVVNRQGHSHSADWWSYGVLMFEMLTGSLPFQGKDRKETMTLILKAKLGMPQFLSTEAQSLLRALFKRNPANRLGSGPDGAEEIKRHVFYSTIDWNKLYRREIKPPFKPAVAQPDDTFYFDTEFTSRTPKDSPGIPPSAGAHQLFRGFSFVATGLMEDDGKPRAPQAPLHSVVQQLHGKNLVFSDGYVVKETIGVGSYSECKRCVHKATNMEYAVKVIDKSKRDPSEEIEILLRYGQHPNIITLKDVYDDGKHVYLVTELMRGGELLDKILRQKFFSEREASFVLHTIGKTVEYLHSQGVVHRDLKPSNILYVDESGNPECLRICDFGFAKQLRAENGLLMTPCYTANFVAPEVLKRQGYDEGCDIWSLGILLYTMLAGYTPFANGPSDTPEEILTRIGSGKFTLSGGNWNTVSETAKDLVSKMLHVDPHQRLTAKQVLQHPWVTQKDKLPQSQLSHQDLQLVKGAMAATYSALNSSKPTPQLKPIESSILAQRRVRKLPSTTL

[5] = target: T2, 3-phosphoinositide-dependent protein kinase 1 (Homo sapiens) (UniProt O15530); assay: Selectivity interaction (Ambit KINOMEscan and KiNATiv profiling in Jurkat cells) EUB0000090b PDPK1; assay type: cell-based; conditions: at 1 µM
T2 sequence (whole entry): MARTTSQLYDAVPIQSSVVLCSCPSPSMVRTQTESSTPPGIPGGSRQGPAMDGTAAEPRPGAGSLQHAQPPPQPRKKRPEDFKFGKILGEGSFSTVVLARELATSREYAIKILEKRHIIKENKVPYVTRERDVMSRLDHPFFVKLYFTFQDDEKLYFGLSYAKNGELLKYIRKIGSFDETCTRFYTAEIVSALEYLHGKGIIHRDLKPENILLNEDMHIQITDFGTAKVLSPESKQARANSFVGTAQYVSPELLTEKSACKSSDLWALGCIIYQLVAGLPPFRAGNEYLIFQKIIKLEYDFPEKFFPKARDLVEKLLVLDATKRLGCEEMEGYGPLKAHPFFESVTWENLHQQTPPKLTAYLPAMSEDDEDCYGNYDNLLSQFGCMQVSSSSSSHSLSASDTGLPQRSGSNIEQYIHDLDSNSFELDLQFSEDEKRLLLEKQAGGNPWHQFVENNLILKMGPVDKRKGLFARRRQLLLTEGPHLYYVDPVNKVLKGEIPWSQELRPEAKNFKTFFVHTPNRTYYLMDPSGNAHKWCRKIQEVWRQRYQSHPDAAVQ

[6] = target: Cyclin-dependent kinase 14 (Homo sapiens) (UniProt O94921); assay: Selectivity interaction (Ambit KINOMEscan and KiNATiv profiling in Jurkat cells) EUB0000090b CDK14; assay type: cell-based; conditions: at 1 µM
Chain of Cyclin-dependent kinase 14 (Homo sapiens) (O94921 whole entry): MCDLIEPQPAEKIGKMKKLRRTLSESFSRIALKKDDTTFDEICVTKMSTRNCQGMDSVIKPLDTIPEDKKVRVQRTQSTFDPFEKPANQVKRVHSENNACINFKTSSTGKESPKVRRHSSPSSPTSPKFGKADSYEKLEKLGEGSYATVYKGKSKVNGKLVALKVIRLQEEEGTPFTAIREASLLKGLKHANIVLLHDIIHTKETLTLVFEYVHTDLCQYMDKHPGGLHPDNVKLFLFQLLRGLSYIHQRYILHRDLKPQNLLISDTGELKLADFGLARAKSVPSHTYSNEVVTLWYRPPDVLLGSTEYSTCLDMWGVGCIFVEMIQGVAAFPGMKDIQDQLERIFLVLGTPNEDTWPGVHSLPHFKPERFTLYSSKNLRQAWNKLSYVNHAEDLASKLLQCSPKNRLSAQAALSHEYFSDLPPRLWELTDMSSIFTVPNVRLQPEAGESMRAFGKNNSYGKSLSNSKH

Chain of Tyrosine-protein kinase Fgr (Homo sapiens) (P09769 2-529 limits assumed): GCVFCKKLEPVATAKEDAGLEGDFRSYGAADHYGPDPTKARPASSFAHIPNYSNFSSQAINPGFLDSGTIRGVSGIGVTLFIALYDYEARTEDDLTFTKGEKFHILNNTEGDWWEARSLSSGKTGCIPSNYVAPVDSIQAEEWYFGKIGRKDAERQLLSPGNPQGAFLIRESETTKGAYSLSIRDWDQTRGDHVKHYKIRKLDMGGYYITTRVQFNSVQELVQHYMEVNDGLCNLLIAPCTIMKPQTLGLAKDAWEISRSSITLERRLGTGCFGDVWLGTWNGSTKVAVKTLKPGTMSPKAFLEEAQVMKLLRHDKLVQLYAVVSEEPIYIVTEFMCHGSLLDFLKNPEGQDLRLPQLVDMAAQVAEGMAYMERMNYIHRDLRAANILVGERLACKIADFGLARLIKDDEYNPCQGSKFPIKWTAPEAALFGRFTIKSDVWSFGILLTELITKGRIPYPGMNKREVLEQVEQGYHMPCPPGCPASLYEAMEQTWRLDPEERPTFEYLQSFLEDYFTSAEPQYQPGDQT

SMILES: Nc1cnc(N2CCc3cc(S(=O)(=O)Nc4c(F)cc(Cl)cc4F)cc(N4CCCC4=O)c32)nc1 [TP-020n]
- % of control [1]: 100%

SMILES: COc1cc(Nc2nc(C)cc(-c3cnn4nc(OC)ccc34)n2)cc(C(F)(F)F)c1
- % of control [2]: 66%

SMILES: Cc1cc(F)c(C(=O)Nc2cccc(-c3nncn3C(C)C)n2)cc1-n1cnc(C2CC2)c1
- % of control [3]: 73%

SMILES: O[C@H]1CC[C@H](Nc2ncc3nc(Nc4c(F)cc(F)cc4F)n([C@H]4CCOC4)c3n2)CC1
- % of control [4]: 98%

SMILES: CN(C)C/C=C/C(=O)Nc1ccc(C(=O)N2CCCC(Nc3ncc(Cl)c(-c4c[nH]c5ccccc45)n3)C2)cc1 (stereo unspecified)
- % of control [5]: 99%
- % of control [6]: 69%
